Measurements: publication PMC2841792 (Journal of medicinal chemistry, 2010)
“Also recorded” adds a separate entry of the source. Counter-ions that a name gives are not always drawn. Like-named read-outs stand apart in the source and are kept apart here.

Key:
[1] = molecular target: anthrax lethal factor (LF) (Bacillus anthracis, UniProt P15917); assay: biochemical
BoNT/A LC [2] = molecular target: T1, BoNT/A LC (Clostridium botulinum, UniProt P0DPI0); assay: biochemical; format: biochemical
MMP-9 = MMP-9 (Homo sapiens, UniProt P14780); format: biochemical
chick neuronal assay = format: cell-based
human MMP-1 = molecular target: T2, human MMP-1 (Homo sapiens, UniProt P03956); format: biochemical
T2 sequence (P03956 100-469): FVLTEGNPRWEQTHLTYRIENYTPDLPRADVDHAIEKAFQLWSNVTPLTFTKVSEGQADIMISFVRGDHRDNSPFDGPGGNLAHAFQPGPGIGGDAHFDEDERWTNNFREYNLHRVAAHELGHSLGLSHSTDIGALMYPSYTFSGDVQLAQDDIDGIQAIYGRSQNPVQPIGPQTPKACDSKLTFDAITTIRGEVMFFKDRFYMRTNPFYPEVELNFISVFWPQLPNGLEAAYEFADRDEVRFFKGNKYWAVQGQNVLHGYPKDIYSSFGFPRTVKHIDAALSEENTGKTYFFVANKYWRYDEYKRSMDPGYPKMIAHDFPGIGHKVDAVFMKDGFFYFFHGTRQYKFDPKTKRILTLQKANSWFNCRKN

BoNT/B LC = BoNT/B LC (Clostridium botulinum, UniProt P10844); format: biochemical
BoNT/A LC [3] = molecular target: T1, BoNT/A LC; assay: biochemical
neuron = settings: not told; cited from earlier work

Chain of anthrax lethal factor (LF) (P15917 34-809 limits assumed): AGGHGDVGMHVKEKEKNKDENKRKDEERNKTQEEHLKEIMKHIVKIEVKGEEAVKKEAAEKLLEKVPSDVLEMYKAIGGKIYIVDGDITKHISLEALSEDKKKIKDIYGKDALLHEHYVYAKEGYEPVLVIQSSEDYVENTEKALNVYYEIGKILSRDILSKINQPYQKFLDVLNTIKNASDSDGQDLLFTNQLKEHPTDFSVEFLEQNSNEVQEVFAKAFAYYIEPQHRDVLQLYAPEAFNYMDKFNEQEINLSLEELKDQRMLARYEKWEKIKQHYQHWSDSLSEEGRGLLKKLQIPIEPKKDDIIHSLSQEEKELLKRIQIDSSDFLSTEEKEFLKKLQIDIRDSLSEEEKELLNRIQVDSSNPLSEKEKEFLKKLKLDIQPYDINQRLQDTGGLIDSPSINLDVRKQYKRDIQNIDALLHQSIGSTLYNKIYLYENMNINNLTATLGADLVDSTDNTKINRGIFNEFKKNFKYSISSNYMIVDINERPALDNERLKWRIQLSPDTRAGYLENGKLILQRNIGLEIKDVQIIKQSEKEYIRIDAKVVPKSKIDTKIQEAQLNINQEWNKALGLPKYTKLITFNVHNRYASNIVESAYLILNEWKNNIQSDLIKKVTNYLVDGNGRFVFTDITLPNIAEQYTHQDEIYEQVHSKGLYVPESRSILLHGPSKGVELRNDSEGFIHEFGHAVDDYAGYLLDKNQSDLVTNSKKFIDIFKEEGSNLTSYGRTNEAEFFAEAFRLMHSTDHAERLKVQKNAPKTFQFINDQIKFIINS
T1 sequence (P0DPI0 2-448 limits assumed): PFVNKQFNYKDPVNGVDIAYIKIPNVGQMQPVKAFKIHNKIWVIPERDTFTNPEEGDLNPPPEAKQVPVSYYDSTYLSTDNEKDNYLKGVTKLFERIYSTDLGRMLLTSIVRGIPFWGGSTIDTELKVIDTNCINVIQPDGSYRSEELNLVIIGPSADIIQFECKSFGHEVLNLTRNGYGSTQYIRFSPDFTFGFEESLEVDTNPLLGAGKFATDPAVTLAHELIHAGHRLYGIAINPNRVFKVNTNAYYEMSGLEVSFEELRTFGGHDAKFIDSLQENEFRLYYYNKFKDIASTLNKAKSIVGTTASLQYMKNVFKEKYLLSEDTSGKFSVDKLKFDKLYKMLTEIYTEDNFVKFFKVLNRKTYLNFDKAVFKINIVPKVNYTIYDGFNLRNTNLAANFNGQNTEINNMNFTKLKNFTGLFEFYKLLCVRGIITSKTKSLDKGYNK
Chain of MMP-9 (P14780 94-707): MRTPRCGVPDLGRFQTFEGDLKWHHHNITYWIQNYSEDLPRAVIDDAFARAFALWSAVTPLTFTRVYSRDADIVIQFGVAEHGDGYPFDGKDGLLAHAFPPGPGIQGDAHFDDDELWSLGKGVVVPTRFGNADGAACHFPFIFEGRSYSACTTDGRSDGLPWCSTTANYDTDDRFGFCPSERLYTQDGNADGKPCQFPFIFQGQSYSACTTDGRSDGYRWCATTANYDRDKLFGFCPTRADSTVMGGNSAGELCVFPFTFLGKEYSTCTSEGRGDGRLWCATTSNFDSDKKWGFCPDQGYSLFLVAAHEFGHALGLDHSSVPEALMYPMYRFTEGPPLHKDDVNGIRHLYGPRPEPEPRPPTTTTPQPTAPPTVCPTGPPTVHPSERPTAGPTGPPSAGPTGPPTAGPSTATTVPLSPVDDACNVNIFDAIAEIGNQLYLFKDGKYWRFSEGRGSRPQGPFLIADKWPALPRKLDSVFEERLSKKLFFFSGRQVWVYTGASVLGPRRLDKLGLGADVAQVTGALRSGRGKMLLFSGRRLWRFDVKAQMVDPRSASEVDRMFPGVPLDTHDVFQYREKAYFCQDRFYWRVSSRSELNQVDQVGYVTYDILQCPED
Chain of BoNT/B LC (P10844 2-441 limits assumed): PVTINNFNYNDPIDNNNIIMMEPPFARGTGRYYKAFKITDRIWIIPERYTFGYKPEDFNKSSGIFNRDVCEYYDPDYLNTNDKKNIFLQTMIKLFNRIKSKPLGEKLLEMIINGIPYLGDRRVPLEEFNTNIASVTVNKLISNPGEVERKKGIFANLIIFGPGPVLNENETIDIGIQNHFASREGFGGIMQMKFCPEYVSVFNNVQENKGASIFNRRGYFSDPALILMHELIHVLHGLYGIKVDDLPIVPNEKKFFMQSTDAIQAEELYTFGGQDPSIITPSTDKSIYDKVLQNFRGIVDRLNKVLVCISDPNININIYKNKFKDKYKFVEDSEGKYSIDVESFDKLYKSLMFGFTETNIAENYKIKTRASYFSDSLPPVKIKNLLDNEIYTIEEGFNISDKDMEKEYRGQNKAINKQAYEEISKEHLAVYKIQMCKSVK

Compound: N=C(N)c1ccc2cc(-c3ccc(F)cc3)[nH]c2c1 [Compound 40b, 2-(4-Fluorophenyl)-1H-indole-6-carboximidamide]
- IC50 [1]: 48 µM
- IC50 (BoNT/A LC [2]): > 100 µM

Compound: COc1ccc(-c2cc3ccc(C(N)=O)cc3[nH]2)cc1 [Compound 43a, 2-(4-Methoxyphenyl)-1H-indole-6-carboxamide]
- IC50 [1]: > 100 µM
- IC50 (BoNT/A LC [2]): > 100 µM

Compound: NC(=O)c1ccc2cc(-c3ccc(F)cc3)[nH]c2c1 [Compound 40a, 2-(4-Fluorophenyl)-1H-indole-6-carboxamide]
- IC50 [1]: > 100 µM
- IC50 (BoNT/A LC [2]): > 100 µM

Compound: CN(C)CC/N=C(\N)c1ccc(Oc2ccc(-c3cc4ccc(/C(N)=N/CCN(C)C)cc4[nH]3)cc2)cc1 [Compound 12]
- inhibitory activity against MMP-9 (MMP-9): no inhibitory activities; also recorded: does not inhibit
- cellular activity in a chick neuronal assay (chick neuronal assay): showed cellular activity
- inhibitory activity against human MMP-1 (human MMP-1): no inhibitory activities; also recorded: does not inhibit
- dependence of inhibitory activity on Zn concentration (BoNT/A LC [2]): independent of the Zn concentration
- fold more potent than the lead structure (compound 5) against BoNT/A LC (BoNT/A LC [2]): 4.4 fold
- inhibitory activity against BoNT/B (BoNT/B LC): no inhibitory activities; also recorded: does not inhibit

Compound: Clc1ccc(Oc2ccc(-c3cc4ccc(C5=NCCN5)cc4[nH]3)cc2)c(Cl)c1 [Compound 29, 2-(4-(2,4-Dichlorophenoxy)phenyl)-6-(4,5-dihydro-1H-imidazol-2-yl)-1H-indole]
- inhibitory activity against BoNT/A LC (in words) (BoNT/A LC [2]): maintain inhibitory activity

Compound: N#Cc1ccc2cc(-c3ccc(F)cc3)[nH]c2c1 [Compound 39, 2-(4-Fluorophenyl)-1H-indole-6-carbonitrile]
- IC50 [1]: > 100 µM
- IC50 (BoNT/A LC [2]): > 100 µM

Compound: NCCNc1ccc(-c2cc3ccc(C4=NCCN4)cc3s2)nc1 [Compound 50, N^1–(6-(6-(4,5-Dihydro-1H-imidazol-2-yl)benzo[b]thiophen-2-yl)pyridine-3-yl)ethane-1,2-diamine]
- IC50 [1]: > 100 µM

Compound: c1cc(-c2cc3ccc(C4=NCCN4)cc3[nH]2)ccc1C1=NCCN1 [Compound 44a, 6-(4,5-Dihydro-1H-imidazol-2-yl)-2-(4-(4,5-dihydro-1H-imidazol-2-yl)phenyl)-1H-indole]
- inhibitory activity against MMP-9 (MMP-9): no inhibitory activities
- inhibitory activity against human MMP-1 (human MMP-1): no inhibitory activities
- inhibitory activity against BoNT/B (BoNT/B LC): no inhibitory activities

Compound: NC(=O)c1ccc2cc(-c3ccc(F)cn3)sc2c1 [Compound 49, 2-(5-Fluoro-2-pyridyl)-6-benzo[b]thiophenecarboxamide]
- IC50 [1]: > 100 µM
- IC50 (BoNT/A LC [2]): > 100 µM

Compound: COc1ccc(-c2cc3ccc(C4=NCCN4)cc3[nH]2)cc1 [Compound 43c, 2-(4-Methoxyphenyl)-6-(4,5-dihydro-1H-imidazol-2-yl)-1H-indole]
- IC50 [1]: 61 µM
- IC50 (BoNT/A LC [2]): 45 µM

Compound: c1cc(-c2cc3ccc(C4=NCCN4)cc3s2)ccc1C1=NCCN1 [Compound 46a, 2-(4-(6-(4,5-Dihydro-1H-imidazol-2-yl)benzo[b]thiophen-2-yl)phenyl)-4,5-dihydro-1H-imidazole]
- IC50 (BoNT/A LC [3]): 28 µM

Compound: OC1CN=C(c2ccc(Oc3ccc(-c4cc5ccc(C6=NCC(O)CN6)cc5[nH]4)cc3)cc2)NC1 (stereo not drawn) [Compound 15, 2-(4-(4-(6-(5-Hydroxy-1,4,5,6-tetrahydropyrimidin-2-yl)-1H-indol-2-yl)phenoxy)phenyl)-1,4,5,6-tetrahydropyrimidin-5-ol]
- selectivity for BoNT/A LC versus anthrax LF (BoNT/A LC [2]): over ten-fold

Compound: COc1ccc(-c2cc3ccc(C(=N)N)cc3[nH]2)cc1 [Compound 43b, 2-(4-Methoxyphenyl)-1H-indole-6-carboximidamide]
- IC50 [1]: > 100 µM
- IC50 (BoNT/A LC [2]): > 100 µM

Compound: Cl.Cl.N=C(N)c1ccc(Oc2ccc(-c3cc4ccc(C(=N)N)cc4[nH]3)cc2)cc1 [Compound 5]
- neuron permeability (neuron): neuron-permeable

Compound: Fc1ccc(-c2cc3ccc(C4=NCCN4)cc3[nH]2)cc1 [Compound 40c, 6-(4,5-Dihydro-1H-imidazol-2-yl)-2-(4-fluorophenyl)-1H-indole]
- IC50 [1]: 40 µM
- IC50 (BoNT/A LC [2]): > 100 µM

Compound: N#Cc1ccc(Oc2ccc(-c3cc4ccc(C5=NCCN5)cc4[nH]3)cc2)c(Cl)c1 [Compound 24c, 2-(4-(2-Chloro-4-cyanophenoxy)phenyl)-6-(4,5-dihydro-1H-imidazol-2-yl)indole]
- fold less potent than bis-imidazoline 13 against BoNT/A LC (BoNT/A LC [2]): 2.4 fold
- inhibitory activity against BoNT/A LC (in words) (BoNT/A LC [2]): maintain inhibitory activity

Compound: N#Cc1ccc(Oc2ccc(-c3cc4ccc(C(=N)N)cc4[nH]3)cc2)cc1 [Compound 11, 2-(4-(4-Cyanophenoxy)phenyl)-1H-indole-6-carboximidamide hydrochloride salt]
- inhibitory activity against BoNT/A LC (in words) (BoNT/A LC [2]): no activity
